Experimental data published in ChEMBL document CHEMBL1143467, “Synthesis of potent and selective serotonin 5-HT1B receptor ligands” (Bioorg Med Chem Lett, 2005).

Key:
[1] = target: T1, Muscarinic acetylcholine receptor M1 (Homo sapiens, UniProt P11229); test: Affinity towards cloned Muscarinic acetylcholine receptor M1
T1 sequence (P11229 whole entry): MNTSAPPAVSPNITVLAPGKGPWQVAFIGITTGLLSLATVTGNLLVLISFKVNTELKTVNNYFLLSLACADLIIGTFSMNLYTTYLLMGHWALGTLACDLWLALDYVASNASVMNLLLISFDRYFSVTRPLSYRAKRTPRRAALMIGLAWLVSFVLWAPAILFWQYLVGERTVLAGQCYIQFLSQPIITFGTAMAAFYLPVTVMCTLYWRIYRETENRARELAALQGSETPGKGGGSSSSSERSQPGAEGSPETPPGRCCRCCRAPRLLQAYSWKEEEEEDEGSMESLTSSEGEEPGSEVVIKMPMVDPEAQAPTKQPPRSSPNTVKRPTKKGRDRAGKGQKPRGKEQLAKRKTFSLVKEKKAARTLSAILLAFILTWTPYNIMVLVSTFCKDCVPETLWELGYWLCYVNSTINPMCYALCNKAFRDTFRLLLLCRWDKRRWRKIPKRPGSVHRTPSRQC

[2] = target: T2, Muscarinic acetylcholine receptor M2 (Homo sapiens, UniProt P08172); test: Affinity towards cloned Muscarinic acetylcholine receptor M2
T2 sequence (P08172 whole entry): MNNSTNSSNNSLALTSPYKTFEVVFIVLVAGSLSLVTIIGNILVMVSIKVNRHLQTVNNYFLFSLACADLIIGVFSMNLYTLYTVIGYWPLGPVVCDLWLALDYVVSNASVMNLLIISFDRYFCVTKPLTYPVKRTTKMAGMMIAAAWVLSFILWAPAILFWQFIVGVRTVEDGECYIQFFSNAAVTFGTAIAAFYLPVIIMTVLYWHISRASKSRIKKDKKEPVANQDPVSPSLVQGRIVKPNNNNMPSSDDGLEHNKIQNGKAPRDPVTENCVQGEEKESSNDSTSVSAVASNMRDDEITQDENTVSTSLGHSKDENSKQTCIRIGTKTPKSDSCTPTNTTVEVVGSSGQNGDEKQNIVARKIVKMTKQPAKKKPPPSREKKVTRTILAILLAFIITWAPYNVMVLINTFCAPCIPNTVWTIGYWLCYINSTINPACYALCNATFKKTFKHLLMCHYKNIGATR

[3] = target: Muscarinic acetylcholine receptor M3 (Homo sapiens, UniProt P20309); test: Affinity towards cloned Muscarinic acetylcholine receptor M3
Sequence of Muscarinic acetylcholine receptor M3 (P20309 whole entry): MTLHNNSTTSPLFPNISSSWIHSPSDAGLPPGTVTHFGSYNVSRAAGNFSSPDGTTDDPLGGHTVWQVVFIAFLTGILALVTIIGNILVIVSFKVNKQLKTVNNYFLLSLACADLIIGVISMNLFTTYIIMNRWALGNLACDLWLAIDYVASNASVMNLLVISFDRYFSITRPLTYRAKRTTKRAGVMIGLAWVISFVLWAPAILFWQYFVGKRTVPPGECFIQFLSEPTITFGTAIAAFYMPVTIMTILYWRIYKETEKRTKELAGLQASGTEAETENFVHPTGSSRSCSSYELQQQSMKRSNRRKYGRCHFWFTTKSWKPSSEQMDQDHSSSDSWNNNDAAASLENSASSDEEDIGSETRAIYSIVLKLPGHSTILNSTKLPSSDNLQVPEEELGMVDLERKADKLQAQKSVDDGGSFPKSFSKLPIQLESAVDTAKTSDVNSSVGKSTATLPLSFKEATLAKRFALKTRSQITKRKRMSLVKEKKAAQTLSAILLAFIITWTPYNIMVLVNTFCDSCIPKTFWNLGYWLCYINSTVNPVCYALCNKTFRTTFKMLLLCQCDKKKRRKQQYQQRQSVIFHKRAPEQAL

[4] = target: T3, Muscarinic acetylcholine receptor M4 (Homo sapiens, UniProt P08173); test: Affinity towards cloned Muscarinic acetylcholine receptor M4
T3 sequence (P08173 whole entry): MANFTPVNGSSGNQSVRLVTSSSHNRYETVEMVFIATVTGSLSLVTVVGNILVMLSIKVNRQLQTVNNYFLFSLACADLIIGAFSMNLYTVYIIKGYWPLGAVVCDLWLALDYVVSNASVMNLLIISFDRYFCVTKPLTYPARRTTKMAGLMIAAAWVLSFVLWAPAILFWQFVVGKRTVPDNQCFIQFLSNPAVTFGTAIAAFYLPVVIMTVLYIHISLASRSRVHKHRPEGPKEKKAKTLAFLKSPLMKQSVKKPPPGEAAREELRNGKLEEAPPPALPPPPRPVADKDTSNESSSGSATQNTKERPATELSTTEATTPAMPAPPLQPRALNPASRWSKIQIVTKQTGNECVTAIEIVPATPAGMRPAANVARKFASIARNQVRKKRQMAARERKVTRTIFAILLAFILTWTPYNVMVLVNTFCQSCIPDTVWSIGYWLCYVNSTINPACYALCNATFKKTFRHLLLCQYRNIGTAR

[5] = target: T4, Muscarinic acetylcholine receptor M5 (Homo sapiens, UniProt P08912); test: Affinity towards cloned Muscarinic acetylcholine receptor M5
T4 sequence (P08912 whole entry): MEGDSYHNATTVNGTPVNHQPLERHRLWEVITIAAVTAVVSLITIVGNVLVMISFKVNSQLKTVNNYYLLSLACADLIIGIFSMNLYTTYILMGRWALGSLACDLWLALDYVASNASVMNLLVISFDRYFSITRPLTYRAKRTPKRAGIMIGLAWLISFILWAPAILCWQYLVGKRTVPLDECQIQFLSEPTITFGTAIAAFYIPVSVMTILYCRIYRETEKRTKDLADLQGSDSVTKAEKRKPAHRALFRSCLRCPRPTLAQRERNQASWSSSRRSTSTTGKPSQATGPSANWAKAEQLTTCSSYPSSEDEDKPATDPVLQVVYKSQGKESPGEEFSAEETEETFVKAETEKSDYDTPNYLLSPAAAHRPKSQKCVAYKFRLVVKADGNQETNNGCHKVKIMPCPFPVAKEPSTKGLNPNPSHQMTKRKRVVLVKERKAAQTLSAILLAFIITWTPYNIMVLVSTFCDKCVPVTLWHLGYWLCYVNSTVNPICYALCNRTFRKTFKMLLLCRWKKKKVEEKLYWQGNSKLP

[6] = target: 5-hydroxytryptamine receptor 1D (Homo sapiens, UniProt P28221); test: In vitro binding affinity towards cloned human 5-HT1D receptor using [3H]5-carboximidotryptamine as radioligand
[7] = target: 5-hydroxytryptamine receptor 2A (Homo sapiens, UniProt P28223); test: In vitro binding affinity towards cloned human 5-HT2A receptor using [3H]5-carboximidotryptamine as radioligand
Sequence of 5-hydroxytryptamine receptor 2A (P28223 whole entry): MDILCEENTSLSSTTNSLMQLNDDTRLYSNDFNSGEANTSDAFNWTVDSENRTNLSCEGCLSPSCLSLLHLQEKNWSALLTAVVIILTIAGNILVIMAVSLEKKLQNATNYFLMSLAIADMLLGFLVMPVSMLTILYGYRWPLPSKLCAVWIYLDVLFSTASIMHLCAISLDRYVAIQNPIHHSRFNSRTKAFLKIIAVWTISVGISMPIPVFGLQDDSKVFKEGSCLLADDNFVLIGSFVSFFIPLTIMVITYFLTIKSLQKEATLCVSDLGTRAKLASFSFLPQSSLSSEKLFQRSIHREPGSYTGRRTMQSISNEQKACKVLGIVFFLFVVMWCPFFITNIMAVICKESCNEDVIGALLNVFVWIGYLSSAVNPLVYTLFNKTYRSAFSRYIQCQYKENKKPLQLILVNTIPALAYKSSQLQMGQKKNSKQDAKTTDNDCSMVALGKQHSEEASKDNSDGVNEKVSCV

[8] = target: T5, 5-hydroxytryptamine receptor 2C (Homo sapiens, UniProt P28335); test: In vitro binding affinity towards cloned human 5-HT2C receptor using [3H]5-carboximidotryptamine as radioligand
T5 sequence (P28335 whole entry): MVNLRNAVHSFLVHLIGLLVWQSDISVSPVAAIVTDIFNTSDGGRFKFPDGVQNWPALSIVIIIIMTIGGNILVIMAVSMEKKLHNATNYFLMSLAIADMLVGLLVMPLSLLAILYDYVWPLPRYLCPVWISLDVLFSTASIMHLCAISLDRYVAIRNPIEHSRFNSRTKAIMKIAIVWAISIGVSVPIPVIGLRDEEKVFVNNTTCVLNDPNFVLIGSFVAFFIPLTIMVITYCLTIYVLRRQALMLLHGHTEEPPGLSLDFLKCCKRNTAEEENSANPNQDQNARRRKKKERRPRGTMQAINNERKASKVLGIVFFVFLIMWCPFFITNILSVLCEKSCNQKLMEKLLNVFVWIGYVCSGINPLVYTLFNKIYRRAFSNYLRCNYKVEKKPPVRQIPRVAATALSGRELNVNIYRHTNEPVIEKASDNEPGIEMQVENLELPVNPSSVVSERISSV

D(1A) dopamine receptor = D(1A) dopamine receptor (Homo sapiens, UniProt P21728); test: Affinity towards cloned Dopamine receptor D1
D(2) dopamine receptor = D(2) dopamine receptor (Homo sapiens, UniProt P14416); test: Affinity towards cloned Dopamine receptor D2
Sequence of D(2) dopamine receptor (P14416 whole entry): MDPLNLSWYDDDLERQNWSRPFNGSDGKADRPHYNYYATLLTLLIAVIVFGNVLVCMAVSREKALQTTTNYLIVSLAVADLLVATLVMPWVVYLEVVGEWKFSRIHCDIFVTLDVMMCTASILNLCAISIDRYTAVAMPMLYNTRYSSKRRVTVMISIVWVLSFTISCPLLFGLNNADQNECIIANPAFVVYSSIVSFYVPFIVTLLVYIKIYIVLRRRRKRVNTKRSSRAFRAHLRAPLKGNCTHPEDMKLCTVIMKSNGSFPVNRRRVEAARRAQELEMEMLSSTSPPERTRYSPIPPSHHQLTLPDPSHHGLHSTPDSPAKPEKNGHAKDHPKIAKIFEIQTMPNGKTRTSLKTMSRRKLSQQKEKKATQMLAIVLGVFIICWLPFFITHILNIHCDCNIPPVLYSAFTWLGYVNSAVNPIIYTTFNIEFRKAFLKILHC

D(3) dopamine receptor = D(3) dopamine receptor (Homo sapiens, UniProt P35462); test: Affinity towards cloned Dopamine receptor D3
Sequence of D(3) dopamine receptor (P35462 whole entry): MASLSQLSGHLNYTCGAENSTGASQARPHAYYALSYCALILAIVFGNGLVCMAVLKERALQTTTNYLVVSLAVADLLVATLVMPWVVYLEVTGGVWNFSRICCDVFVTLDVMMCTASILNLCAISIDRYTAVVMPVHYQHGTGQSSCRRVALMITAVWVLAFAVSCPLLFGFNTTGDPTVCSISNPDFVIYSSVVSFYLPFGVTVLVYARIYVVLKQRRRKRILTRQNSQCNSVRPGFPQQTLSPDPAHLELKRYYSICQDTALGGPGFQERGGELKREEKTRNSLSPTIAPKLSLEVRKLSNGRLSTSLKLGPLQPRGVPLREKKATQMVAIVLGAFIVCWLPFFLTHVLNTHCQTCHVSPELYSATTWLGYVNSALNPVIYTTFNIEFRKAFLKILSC

D(4) dopamine receptor = target: T6, D(4) dopamine receptor (Homo sapiens, UniProt P21917); test: Affinity towards cloned Dopamine receptor D4
T6 sequence (P21917 whole entry): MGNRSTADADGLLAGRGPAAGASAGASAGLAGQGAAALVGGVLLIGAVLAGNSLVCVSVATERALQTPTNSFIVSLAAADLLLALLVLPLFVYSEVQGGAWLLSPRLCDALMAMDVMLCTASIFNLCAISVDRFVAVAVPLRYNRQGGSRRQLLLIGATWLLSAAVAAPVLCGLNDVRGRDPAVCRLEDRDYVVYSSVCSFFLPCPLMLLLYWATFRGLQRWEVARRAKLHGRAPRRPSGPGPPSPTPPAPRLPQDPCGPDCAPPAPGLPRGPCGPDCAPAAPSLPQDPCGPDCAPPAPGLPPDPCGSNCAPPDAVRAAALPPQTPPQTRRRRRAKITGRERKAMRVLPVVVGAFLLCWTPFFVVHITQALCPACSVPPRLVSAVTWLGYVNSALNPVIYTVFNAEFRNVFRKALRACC

D(1B) dopamine receptor = D(1B) dopamine receptor (Homo sapiens, UniProt P21918); test: Affinity towards cloned Dopamine receptor D5
Sequence of D(1B) dopamine receptor (P21918 whole entry): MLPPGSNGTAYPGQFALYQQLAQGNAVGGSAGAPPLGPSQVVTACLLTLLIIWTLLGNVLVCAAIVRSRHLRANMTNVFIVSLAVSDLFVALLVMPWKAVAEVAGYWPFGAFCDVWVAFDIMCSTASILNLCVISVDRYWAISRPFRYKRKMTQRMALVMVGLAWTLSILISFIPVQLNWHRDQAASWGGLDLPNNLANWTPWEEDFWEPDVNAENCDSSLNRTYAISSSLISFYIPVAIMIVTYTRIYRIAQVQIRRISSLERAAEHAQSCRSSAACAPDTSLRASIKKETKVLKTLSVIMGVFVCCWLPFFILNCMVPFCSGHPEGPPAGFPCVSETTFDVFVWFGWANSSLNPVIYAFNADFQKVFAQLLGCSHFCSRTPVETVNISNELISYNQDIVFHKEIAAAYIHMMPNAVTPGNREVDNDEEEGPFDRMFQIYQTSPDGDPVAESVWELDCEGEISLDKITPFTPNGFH

Mu-type opioid receptor = Mu-type opioid receptor (Homo sapiens, UniProt P35372); test: Affinity towards cloned Opioid receptor mu 1
Histamine H1 receptor = Histamine H1 receptor (Homo sapiens, UniProt P35367); test: Affinity towards cloned Histamine H1 receptor
Sequence of Histamine H1 receptor (P35367 whole entry): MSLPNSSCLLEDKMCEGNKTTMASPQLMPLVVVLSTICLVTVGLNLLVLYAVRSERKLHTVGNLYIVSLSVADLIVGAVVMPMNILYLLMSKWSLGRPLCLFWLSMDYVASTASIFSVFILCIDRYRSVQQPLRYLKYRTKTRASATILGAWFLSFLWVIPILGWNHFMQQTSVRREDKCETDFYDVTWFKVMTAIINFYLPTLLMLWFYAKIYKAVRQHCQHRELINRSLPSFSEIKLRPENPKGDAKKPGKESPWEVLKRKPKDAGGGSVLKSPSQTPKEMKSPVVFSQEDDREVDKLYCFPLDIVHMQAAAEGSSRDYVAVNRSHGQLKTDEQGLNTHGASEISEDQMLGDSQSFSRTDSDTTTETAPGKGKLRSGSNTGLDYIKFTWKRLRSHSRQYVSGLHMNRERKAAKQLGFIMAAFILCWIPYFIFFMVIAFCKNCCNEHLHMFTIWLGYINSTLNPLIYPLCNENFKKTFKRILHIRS

[9] = target: Delta-type opioid receptor (Homo sapiens, UniProt P41143); test: Affinity towards cloned Opioid receptor delta 1
Sequence of Delta-type opioid receptor (P41143 whole entry): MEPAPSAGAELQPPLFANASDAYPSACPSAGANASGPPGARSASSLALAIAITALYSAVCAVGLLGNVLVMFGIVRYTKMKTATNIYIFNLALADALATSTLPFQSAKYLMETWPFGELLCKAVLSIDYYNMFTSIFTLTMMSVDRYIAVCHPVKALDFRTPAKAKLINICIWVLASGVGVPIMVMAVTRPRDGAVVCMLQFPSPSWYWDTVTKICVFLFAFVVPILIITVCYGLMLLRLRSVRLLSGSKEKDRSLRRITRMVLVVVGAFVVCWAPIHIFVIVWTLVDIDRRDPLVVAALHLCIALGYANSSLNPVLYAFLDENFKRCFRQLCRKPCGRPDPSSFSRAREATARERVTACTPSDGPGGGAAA

[10] = target: Kappa-type opioid receptor (Homo sapiens, UniProt P41145); test: Affinity towards cloned Opioid receptor kappa 1
Sequence of Kappa-type opioid receptor (P41145 whole entry): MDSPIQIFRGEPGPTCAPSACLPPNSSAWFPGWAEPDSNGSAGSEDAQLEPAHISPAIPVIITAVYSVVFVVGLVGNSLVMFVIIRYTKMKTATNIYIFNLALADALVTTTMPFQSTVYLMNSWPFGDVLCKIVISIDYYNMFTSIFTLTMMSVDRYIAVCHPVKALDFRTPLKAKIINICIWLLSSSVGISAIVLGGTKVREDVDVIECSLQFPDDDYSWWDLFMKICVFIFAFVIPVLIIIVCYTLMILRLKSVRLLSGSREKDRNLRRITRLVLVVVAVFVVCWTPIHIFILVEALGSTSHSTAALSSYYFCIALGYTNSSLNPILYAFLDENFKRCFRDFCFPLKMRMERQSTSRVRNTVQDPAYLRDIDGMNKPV

[11] = Affinity towards cloned Nicotinic acetylcholine receptor
[12] = target: 5-hydroxytryptamine receptor 6 (Homo sapiens, UniProt P50406); test: In vitro binding affinity towards cloned human 5-HT6 receptor using [3H]5-carboximidotryptamine as radioligand
Sequence of 5-hydroxytryptamine receptor 6 (P50406 whole entry): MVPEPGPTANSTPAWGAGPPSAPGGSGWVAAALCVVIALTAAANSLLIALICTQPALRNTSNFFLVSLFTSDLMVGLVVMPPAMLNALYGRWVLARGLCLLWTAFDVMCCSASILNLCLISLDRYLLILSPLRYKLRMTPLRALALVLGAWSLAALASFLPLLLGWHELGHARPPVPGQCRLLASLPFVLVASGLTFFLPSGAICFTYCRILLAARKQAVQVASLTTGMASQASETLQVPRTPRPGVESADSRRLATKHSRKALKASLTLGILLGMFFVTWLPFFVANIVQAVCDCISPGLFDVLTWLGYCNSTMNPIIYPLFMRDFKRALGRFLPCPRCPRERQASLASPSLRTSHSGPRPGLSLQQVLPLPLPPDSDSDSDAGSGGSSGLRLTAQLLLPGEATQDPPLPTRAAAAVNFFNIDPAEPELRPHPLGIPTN

[13] = target: 5-hydroxytryptamine receptor 7 (Homo sapiens, UniProt P34969); test: In vitro binding affinity towards cloned human 5-HT7 receptor using [3H]5-carboximidotryptamine as radioligand
Sequence of 5-hydroxytryptamine receptor 7 (P34969 whole entry): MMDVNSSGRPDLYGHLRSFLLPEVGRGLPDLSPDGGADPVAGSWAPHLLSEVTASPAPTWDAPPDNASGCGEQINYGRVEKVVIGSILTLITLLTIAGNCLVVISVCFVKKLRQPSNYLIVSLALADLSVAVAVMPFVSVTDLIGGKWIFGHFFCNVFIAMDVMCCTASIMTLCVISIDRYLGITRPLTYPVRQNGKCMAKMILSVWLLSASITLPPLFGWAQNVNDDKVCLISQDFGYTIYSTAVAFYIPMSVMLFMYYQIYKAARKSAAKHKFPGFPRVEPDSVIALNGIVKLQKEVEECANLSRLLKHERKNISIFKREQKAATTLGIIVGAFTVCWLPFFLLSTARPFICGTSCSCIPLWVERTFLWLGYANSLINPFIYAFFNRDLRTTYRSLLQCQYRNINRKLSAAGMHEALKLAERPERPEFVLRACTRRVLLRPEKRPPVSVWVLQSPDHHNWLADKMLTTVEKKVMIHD

[14] = target: 5-hydroxytryptamine receptor 1B (Homo sapiens, UniProt P28222); test: In vitro binding affinity towards cloned human 5-HT1B receptor using [3H]5-carboximidotryptamine as radioligand
Sequence of 5-hydroxytryptamine receptor 1B (P28222 whole entry): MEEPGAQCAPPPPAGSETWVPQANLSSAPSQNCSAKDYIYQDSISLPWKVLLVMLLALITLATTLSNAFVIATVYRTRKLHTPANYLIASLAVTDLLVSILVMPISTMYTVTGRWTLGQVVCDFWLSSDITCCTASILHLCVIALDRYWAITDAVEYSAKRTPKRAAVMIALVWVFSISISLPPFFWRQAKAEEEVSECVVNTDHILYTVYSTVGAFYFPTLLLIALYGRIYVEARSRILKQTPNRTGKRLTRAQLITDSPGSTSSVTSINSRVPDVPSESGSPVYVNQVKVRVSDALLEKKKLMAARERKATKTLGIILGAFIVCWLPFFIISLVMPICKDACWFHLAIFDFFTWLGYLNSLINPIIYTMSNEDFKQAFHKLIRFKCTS

Ki [1]: > 10 µM
Ki [2]: > 10 µM
Ki [3]: > 10 µM
Ki [4]: > 10 µM
Ki [5]: > 10 µM
Ki [6]: 0.106 µM
Ki [7]: 6.74 µM
Ki [8]: 1.94 µM
Ki (D(1A) dopamine receptor): > 10 µM
Ki (D(2) dopamine receptor): > 10 µM
Ki (D(3) dopamine receptor): > 10 µM
Ki (D(4) dopamine receptor): > 10 µM
Ki (D(1B) dopamine receptor): > 10 µM
Ki (Mu-type opioid receptor): > 10 µM
Ki (Histamine H1 receptor): > 10 µM
Ki [9]: > 10 µM
Ki [10]: > 10 µM
Ki [11]: > 10 µM
Ki [12]: 2.41 µM
Ki [13]: 1.41 µM
Ki [14]: 0.0124 µM
Compound: COc1ccc(NC(=O)N2CCN(c3ccccc3OC)CC2)cc1N1CCN(C)CC1
